From the supplement of paper PMC10307832

Columns and labels:
Assay in all cases: relative viability (nuclei count vs DMSO), 5 days (fraction); higher = more cells survive
[1] = compound: CCC1=CN=CN=C1N2CCN(CC2)CC3=NC4=C(N3)C=C(C=C4)C(F)(F)F + Nc1nc2[nH]cc(CCc3ccc(C(=O)N[C@@H](CCC(=O)O)C(=O)O)cc3)c2c(=O)[nH]1 [Pemetrexed] (partner 0.2 µM)
In short: (§1)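 Relative viability is defined as nuclei in treated wells over nuclei in vehicle wells. Duplicate plates were run and medians reported. Lung cancer cell lines in 1536-well plates were dosed by pin tool one day after seeding, with one drug or with a fixed anchor-drug dose plus five library-drug doses (not always all listed) in √10 steps, and nuclei were counted after 5 days.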

[2] = compound: CCn1c(-c2nonc2N)nc2cnc(Oc3cccc(NC(=O)c4ccc(OCCN5CCOCC5)cc4)c3)cc21 + CC(C)C[C@H](NC(=O)[C@H](Cc1ccccc1)NC(=O)c1cnccn1)B(O)O [Bortezomib] (partner 0.002 µM)
In short: as §1

[3] = compound: CCn1c(-c2nonc2N)nc2cnc(Oc3cccc(NC(=O)c4ccc(OCCN5CCOCC5)cc4)c3)cc21 + CCNC(=O)c1noc(-c2cc(C(C)C)c(O)cc2O)c1-c1ccc(CN2CCOCC2)cc1 [Luminespib] (partner 0.01 µM)
In short: as §1

[4] = compound: N=C1NC(=O)/C(=C/c2ccc(O)cc2)S1 [Mirin] + CCNC(=O)c1noc(-c2cc(C(C)C)c(O)cc2O)c1-c1ccc(CN2CCOCC2)cc1 [Luminespib] (partner 0.01 µM)
In short: as §1

Cell Line	relative viability ([1]; first compound 0.04 µM)	relative viability ([1]; first compound 0.1265 µM)	relative viability ([1]; first compound 0.4 µM)	relative viability ([1]; first compound 1.265 µM)	relative viability ([1]; first compound 4 µM)	relative viability ([2]; first compound 0.04 µM)	relative viability ([2]; first compound 0.1265 µM)	relative viability ([2]; first compound 0.4 µM)	relative viability ([2]; first compound 1.265 µM)	relative viability ([2]; first compound 4 µM)	relative viability ([3]; first compound 0.04 µM)	relative viability ([3]; first compound 0.1265 µM)	relative viability ([3]; first compound 0.4 µM)	relative viability ([3]; first compound 1.265 µM)	relative viability ([3]; first compound 4 µM)	relative viability ([4]; first compound 0.25 µM)	relative viability ([4]; first compound 0.7906 µM)	relative viability ([4]; first compound 2.5 µM)	relative viability ([4]; first compound 7.906 µM)	relative viability ([4]; first compound 25 µM)
HOP-62	0.283	0.293	0.326	0.275	0.283	0.875	0.829	0.816	0.756	0.212	1.11	1.01	0.936	0.764	0.735	0.956	0.987	0.923	1.05	1.03
LC-2-ad	0.272	0.266	0.283	0.289	0.292	1.1	0.936	0.756	0.448	0.281	0.937	0.801	0.715	0.568	0.752	1.02	0.837	1.05	0.968	0.721
LCLC-97TM1	0.161	0.152	0.153	0.194	0.173	0.662	0.896	0.397	–	0.247	0.923	0.728	0.664	0.882	0.856	0.672	0.646	0.679	0.63	0.495
LCLC-103H	0.399	0.449	0.462	0.446	0.467	1.08	1.11	0.932	0.651	0.716	1.08	1.02	1.1	0.721	0.779	0.931	1.06	0.93	1.05	1
LOU-NH91	0.377	0.318	0.378	0.348	0.379	0.561	0.526	0.439	0.343	0.377	0.367	0.328	0.331	0.271	0.248	0.304	0.301	0.351	0.322	0.295
LU99A	0.187	0.169	0.178	0.177	0.248	1.03	0.97	0.86	0.783	0.589	0.264	0.221	0.286	0.26	0.249	0.199	0.207	0.225	0.209	0.211
LXF-289	0.938	0.777	0.915	0.977	0.788	1.03	1.04	0.932	0.728	0.646	0.791	0.638	0.798	0.701	0.654	0.662	0.689	0.651	0.666	0.634
NCI-H23	0.579	0.755	0.615	0.646	0.558	1.44	1.16	–	0.856	0.512	0.225	0.242	0.217	0.21	0.215	0.21	0.186	0.2	0.234	0.186
NCI-H322M	0.62	0.606	0.603	0.539	0.629	1.2	1.26	1.22	1.58	1.55	1.25	1.16	0.931	0.434	0.587	0.924	0.745	0.913	1.05	0.583
NCI-H441	0.231	0.274	0.274	0.204	0.265	0.484	0.895	0.458	0.42	0.374	0.333	0.342	–	0.326	0.416	0.377	0.321	0.343	0.269	0.282
NCI-H460	0.0519	0.0632	0.0612	0.0661	0.0611	1.09	1.03	0.716	0.5	0.26	0.0313	0.0331	0.0317	0.0272	0.0222	0.0342	0.0263	0.0361	0.0242	0.0254
NCI-H520	0.667	0.719	0.762	0.576	0.602	0.749	0.614	0.537	0.349	0.239	0.232	0.215	0.217	0.197	0.183	0.234	0.241	0.225	0.235	0.211
NCI-H596	0.52	0.506	0.483	0.438	0.444	0.985	0.905	0.924	0.8	0.746	1.28	1.1	1.01	0.979	0.97	0.931	0.984	1.06	0.955	0.905
NCI-H647	0.165	0.173	0.166	0.159	0.135	0.847	0.654	0.614	0.536	0.631	0.18	0.139	0.269	0.106	0.116	0.115	0.11	0.17	0.241	0.09
NCI-H650	0.806	0.866	0.99	0.837	0.973	1.14	0.631	0.349	0.295	0.374	0.959	0.741	0.424	0.242	0.296	0.741	0.7	0.857	–	0.811
NCI-H661	0.908	0.973	0.941	0.921	0.921	0.896	0.865	0.815	0.608	0.616	0.995	0.934	0.936	0.739	0.642	0.929	1.03	0.945	0.978	0.97

Cell Line	relative viability ([1]; first compound 0.04 µM)	relative viability ([1]; first compound 0.1265 µM)	relative viability ([1]; first compound 0.4 µM)	relative viability ([1]; first compound 1.265 µM)	relative viability ([1]; first compound 4 µM)	relative viability ([2]; first compound 0.04 µM)	relative viability ([2]; first compound 0.1265 µM)	relative viability ([2]; first compound 0.4 µM)	relative viability ([2]; first compound 1.265 µM)	relative viability ([2]; first compound 4 µM)	relative viability ([3]; first compound 0.04 µM)	relative viability ([3]; first compound 0.1265 µM)	relative viability ([3]; first compound 0.4 µM)	relative viability ([3]; first compound 1.265 µM)	relative viability ([3]; first compound 4 µM)	relative viability ([4]; first compound 0.25 µM)	relative viability ([4]; first compound 0.7906 µM)	relative viability ([4]; first compound 2.5 µM)	relative viability ([4]; first compound 7.906 µM)	relative viability ([4]; first compound 25 µM)
NCI-H838	0.248	0.239	0.247	0.244	0.225	0.729	0.397	0.319	0.385	0.31	0.366	0.235	0.252	0.2	0.208	0.316	0.332	0.285	0.229	0.396
NCI-H1355	1.07	0.928	0.996	0.996	1.08	1.22	1.27	1.02	0.72	0.621	0.744	0.742	0.672	0.759	0.797	0.724	0.855	0.764	0.689	0.548
NCI-H1437	0.296	0.295	0.306	0.35	0.224	0.518	0.427	0.514	0.499	0.364	1.25	1.23	1.11	0.897	0.766	1.13	1.11	1.08	1.09	1.11
NCI-H1563	0.6	0.619	0.834	0.598	0.887	0.793	0.821	0.669	0.753	0.603	1.23	0.514	0.482	0.466	0.48	0.54	0.6	0.476	0.589	0.5
NCI-H1650	0.456	0.333	0.401	0.364	0.393	0.258	0.21	0.196	0.209	0.211	0.248	0.198	0.196	0.191	0.183	0.183	0.176	0.175	0.18	0.179
NCI-H1651	0.616	0.627	0.684	0.59	0.728	0.9	0.94	0.824	0.496	0.86	0.843	1.14	0.71	0.689	0.491	0.851	0.694	0.833	0.854	0.784
NCI-H1666	0.745	0.831	0.861	0.81	0.939	0.785	1.02	0.65	0.459	0.385	1.2	1.24	1.27	0.907	0.478	1.03	1.13	1.01	0.936	0.949
NCI-H1734	0.449	0.39	0.408	0.422	0.435	0.889	0.837	0.511	0.412	0.35	0.165	0.21	0.192	0.15	0.166	0.191	0.182	0.21	0.208	0.217
NCI-H1755	0.425	0.453	0.754	0.411	0.454	0.97	0.781	0.649	0.533	0.512	0.345	0.713	0.275	0.299	0.388	0.396	0.519	0.497	0.407	0.358
NCI-H1792	0.773	0.736	0.82	–	0.665	1.09	1	–	0.631	0.817	0.477	0.21	0.47	0.299	0.308	0.34	0.461	0.438	–	0.423
NCI-H1915	0.537	0.511	0.529	0.479	0.498	1.16	0.94	0.958	0.653	0.314	0.905	0.831	0.949	0.775	0.716	0.776	–	0.783	0.676	0.77
NCI-H1975	0.318	0.295	0.298	0.298	0.276	0.244	0.263	0.227	0.177	0.165	0.229	0.136	0.199	0.139	0.125	0.201	0.254	0.16	0.306	0.125
NCI-H1993	0.597	0.644	0.575	0.513	0.674	1.09	1.16	–	0.882	1.02	0.891	0.768	1.02	0.692	0.664	0.777	–	0.778	0.729	0.734
NCI-H2009	0.98	1.02	0.951	0.992	1.08	1.06	0.875	0.647	0.322	0.318	1	0.804	0.822	0.599	0.394	0.983	1.15	1.02	0.925	1.07
NCI-H2023	0.452	0.25	0.204	0.239	0.232	1.25	0.918	0.621	0.504	0.394	0.794	0.72	0.67	0.381	0.332	0.746	0.862	0.804	0.763	0.64
NCI-H2085	0.818	0.789	0.84	0.772	0.845	1.11	1.01	0.86	0.872	0.861	0.535	0.395	0.373	0.365	0.377	0.422	0.343	0.46	0.473	0.453
